Test results from paper PMC10648875 (Antimicrobial Agents and Chemotherapy, 2023).
Converted amounts (≈) assume the structure as drawn.

Columns and labels:
[1] = biological target: T1, VIM-1 in whole cells of KP1015 (OmpK36 GD repeat) (Pseudomonas aeruginosa, UniProt A0A0F7KYQ8); assay: cell-based; design: species or system K. pneumoniae
T1 construct: endogenous in cells; host or cells: K. pneumoniae KP1015

OXA-48 = OXA-48 (Klebsiella pneumoniae, UniProt Q6XEC0); assay: Ki app of β-lactamase inhibition, purified enzyme; assay type: biochemical, Enterobacterales; conditions: 10-minute preincubation; nitrocefin substrate
Sequence of OXA-48 (Q6XEC0 23-265 limits assumed): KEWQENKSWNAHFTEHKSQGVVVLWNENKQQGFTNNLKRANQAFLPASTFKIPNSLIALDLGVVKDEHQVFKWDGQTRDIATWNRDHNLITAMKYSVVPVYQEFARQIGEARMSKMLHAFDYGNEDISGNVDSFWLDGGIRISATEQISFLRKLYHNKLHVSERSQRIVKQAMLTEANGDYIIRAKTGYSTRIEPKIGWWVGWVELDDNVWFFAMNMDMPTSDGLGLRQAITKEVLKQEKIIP
Method: (§1) The majority of purified β-lactamase enzymes used in the study were either expressed and purified internally ([35]) or obtained from Emerald Biostructures (Bainbridge Island, WA, USA). L1 enzyme was purified as described in reference ([36]).
(§2) Enzymes were mixed with BLIs at concentrations varying from 160 to 0.0027 µM in 50-mM Na-phosphate pH7.0, 0.1-mg/mL bovide serum albumin (BSA) (buffer A; 20-µM ZnCl2 was also added for all metalloenzymes) and incubated for 10 minutes at 37°C. Nitrocefin (50 µM) (10 µM for SHV-12) or 100 µM of imipenem (prewarmed at 37°C for 10 minutes) was added, and substrate cleavage profiles were recorded at 37°C at 490 nm every 10 seconds for 10 minutes or at 294 nm every 30 seconds for 1 hour for nitrocefin and imipenem, respectively. […] Ki app values (Ki for metalloenzymes) were calculated by the method of Waley ([37]).

L1 = biological target: T2, L1 (Stenotrophomonas maltophilia, UniProt P52700); assay: Ki of metallo-β-lactamase inhibition, purified enzyme; assay type: biochemical; conditions: 10-minute preincubation; nitrocefin substrate
T2 construct: made in house
T2 sequence (P52700 34-290): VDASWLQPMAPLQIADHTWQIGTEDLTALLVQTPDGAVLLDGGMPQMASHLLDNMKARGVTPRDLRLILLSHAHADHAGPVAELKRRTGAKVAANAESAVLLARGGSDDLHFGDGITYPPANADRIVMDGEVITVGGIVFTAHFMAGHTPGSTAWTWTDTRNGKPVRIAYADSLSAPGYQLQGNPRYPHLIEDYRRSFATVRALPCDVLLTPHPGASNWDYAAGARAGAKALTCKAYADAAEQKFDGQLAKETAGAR
Method: as §1, §2

VIM-1 = VIM-1 (Pseudomonas aeruginosa, UniProt A0A0F7KYQ8); assay: as above; assay type: biochemical; conditions: 10-minute preincubation; nitrocefin substrate
Method: as §1, §2

[2] = system: isogenic efflux and porin mutants of K. pneumoniae and their NDM-1-producing derivatives; assay: MIC against isogenic efflux and porin mutants (Table 9); assay type: cell-based; conditions: for MIC: Klebsiella pneumoniae, BLI alone
[3] = KPM1026a, Wild type, ATCC 43816, β-lactamase None, BLI 0 µg/mL
[4] = KPM1026a, Wild type, ATCC 43816, β-lactamase None, BLI 4 µg/mL
[5] = KPM1026a, Wild type, ATCC 43816, β-lactamase None, BLI 8 µg/mL
[6] = KPM1027, ramR*, β-lactamase None, BLI 0 µg/mL
[7] = KPM1027, ramR*, β-lactamase None, BLI 4 µg/mL
[8] = KPM1027, ramR*, β-lactamase None, BLI 8 µg/mL
[9] = KPM1281, Wild type, ATCC 43816, NDM-1, BLI 0 µg/mL
[10] = KPM1281, Wild type, ATCC 43816, NDM-1, BLI 4 µg/mL
[11] = KPM1281, Wild type, ATCC 43816, NDM-1, BLI 8 µg/mL
[12] = KPM1282, ramR*, NDM-1, BLI 0 µg/mL
[13] = KPM1282, ramR*, NDM-1, BLI 4 µg/mL
[14] = KPM1282, ramR*, NDM-1, BLI 8 µg/mL
[15] = KPM2013, mpK36_2040 ΔompK35, β-lactamase None, BLI 0 µg/mL
[16] = KPM2013, mpK36_2040 ΔompK35, β-lactamase None, BLI 4 µg/mL
[17] = KPM2013, mpK36_2040 ΔompK35, β-lactamase None, BLI 8 µg/mL
[18] = KPM2040, mpK36_2040*, β-lactamase None, BLI 0 µg/mL
[19] = KPM2040, mpK36_2040*, β-lactamase None, BLI 4 µg/mL
[20] = KPM2040, mpK36_2040*, β-lactamase None, BLI 8 µg/mL
[21] = KPM3820, mpK36_2040*, NDM-1, BLI 0 µg/mL
[22] = KPM3820, mpK36_2040*, NDM-1, BLI 4 µg/mL
[23] = KPM3820, mpK36_2040*, NDM-1, BLI 8 µg/mL
[24] = KPM3825, mpK36_2040 ΔompK35, NDM-1, BLI 0 µg/mL
[25] = KPM3825, mpK36_2040 ΔompK35, NDM-1, BLI 4 µg/mL
[26] = KPM3825, mpK36_2040 ΔompK35, NDM-1, BLI 8 µg/mL

O=C(O)c1c(F)ccc2c1OB(O)[C@@H]1C[C@H]21 [Xeruborbactam, xeruborbactam]
IC50 [1]: 70000 ± 13400 nM
Ki (OXA-48): 0.22 ± 0.08 nM
Ki (L1): 1400 nM
Ki (VIM-1): 32 ± 14 nM
Cefepime MIC with BLIs [2, 3]: 0.03 µg/mL
Meropenem MIC with BLIs [2, 3]: 0.03 µg/mL
Cefepime MIC with BLIs [2, 4]: 0.015 µg/mL
Meropenem MIC with BLIs [2, 4]: 0.015 µg/mL
Cefepime MIC with BLIs [2, 5]: 0.002 µg/mL
Meropenem MIC with BLIs [2, 5]: 0.008 µg/mL
Cefepime MIC with BLIs [2, 6]: 0.25 µg/mL
Meropenem MIC with BLIs [2, 6]: 0.06 µg/mL
Cefepime MIC with BLIs [2, 7]: 0.125 µg/mL
Meropenem MIC with BLIs [2, 7]: 0.015 µg/mL
Cefepime MIC with BLIs [2, 8]: 0.015 µg/mL
Meropenem MIC with BLIs [2, 8]: 0.004 µg/mL
Cefepime MIC with BLIs [2, 9]: 16 µg/mL
Meropenem MIC with BLIs [2, 9]: 32 µg/mL
Cefepime MIC with BLIs [2, 10]: 0.03 µg/mL
Meropenem MIC with BLIs [2, 10]: 0.06 µg/mL
Cefepime MIC with BLIs [2, 11]: 0.008 µg/mL
Meropenem MIC with BLIs [2, 11]: 0.004 µg/mL
Cefepime MIC with BLIs [2, 12]: 32 µg/mL
Meropenem MIC with BLIs [2, 12]: 64 µg/mL
Cefepime MIC with BLIs [2, 13]: 0.25 µg/mL
Meropenem MIC with BLIs [2, 13]: 0.125 µg/mL
Cefepime MIC with BLIs [2, 14]: 0.06 µg/mL
Meropenem MIC with BLIs [2, 14]: 0.03 µg/mL
Cefepime MIC with BLIs [2, 15]: 0.5 µg/mL
Meropenem MIC with BLIs [2, 15]: 0.25 µg/mL
Cefepime MIC with BLIs [2, 16]: 0.25 µg/mL
Meropenem MIC with BLIs [2, 16]: 0.125 µg/mL
Cefepime MIC with BLIs [2, 17]: 0.06 µg/mL
Meropenem MIC with BLIs [2, 17]: 0.06 µg/mL
Cefepime MIC with BLIs [2, 18]: 0.125 µg/mL
Meropenem MIC with BLIs [2, 18]: 0.125 µg/mL
Cefepime MIC with BLIs [2, 19]: 0.06 µg/mL
Meropenem MIC with BLIs [2, 19]: 0.06 µg/mL
Cefepime MIC with BLIs [2, 20]: 0.015 µg/mL
Meropenem MIC with BLIs [2, 20]: 0.03 µg/mL
Cefepime MIC with BLIs [2, 21]: 128 µg/mL
Meropenem MIC with BLIs [2, 21]: 128 µg/mL
Cefepime MIC with BLIs [2, 22]: 1 µg/mL
Meropenem MIC with BLIs [2, 22]: 4 µg/mL
Cefepime MIC with BLIs [2, 23]: 0.5 µg/mL
Meropenem MIC with BLIs [2, 23]: 1 µg/mL
Cefepime MIC with BLIs [2, 24]: 256 µg/mL
Meropenem MIC with BLIs [2, 24]: 256 µg/mL
Cefepime MIC with BLIs [2, 25]: 2 µg/mL
Meropenem MIC with BLIs [2, 25]: 8 µg/mL
Cefepime MIC with BLIs [2, 26]: 1 µg/mL
Meropenem MIC with BLIs [2, 26]: 2 µg/mL
MIC ([2]; ATCC43816, KPM1026a, Wild type, ATCC 43816, β-lactamase None): 16 µg/mL (≈ 72.1 µM)
MIC ([2]; ATCC43816, KPM1281, Wild type, ATCC 43816, NDM-1): 16 µg/mL (≈ 72.1 µM)
MIC ([2]; KPM2013, mpK36_2040 ΔompK35, β-lactamase None): 32 µg/mL (≈ 144 µM)
MIC ([2]; KPM2040, mpK36_2040*, β-lactamase None): 32 µg/mL (≈ 144 µM)
MIC ([2]; KPM3820, mpK36_2040*, NDM-1): 32 µg/mL (≈ 144 µM)
MIC ([2]; KPM3825, mpK36_2040 ΔompK35, NDM-1): 32 µg/mL (≈ 144 µM)
